# Calls of active or inactive are those of the source. How the calls were made is not given here.
# Assay: E-selectin induction blockers, endothelial cells – imaging, retest plus dose response, cell count, confirmation (AID 1288);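 further: 0% = stimulated vehicle wells and 100% = unstimulated vehicle wells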
# Details: human endothelial cells, TNFa-induced E-selectin, imaging; at 2 µM; stronger effect = higher value
row,Structure (SMILES),inhibition
1,CN(C)S(=O)(=O)c1cc(NC(=O)CSc2nn(-c3ccc(Cl)cc3)c(=S)s2)ccc1Cl,-2.75% (inactive)
2,[O-][n+]1onc2c1C(N1CCOCC1)CCC2N1CCOCC1 (centres undefined),5.99% (inactive)
3,Cc1ccc(C(=O)Nc2ccc(O)cc2C(=O)O)cc1,3% (inactive)
4,O=C(Nc1nc(-c2ccccc2)c(-c2ccccc2)s1)c1ccc(S(=O)(=O)N(CCCl)CCCl)cc1,-7.24% (inactive)
5,CCOc1ccc(C)cc1-n1nc2ccccc2n1,34.6% (inactive)
6,CCCCOc1ccc(/C=C/C(=O)OCC(=O)NC(=O)NCC(C)C)cc1OCC,15.1% (inactive)
7,CCC(C)NC(=O)C(NS(=O)(=O)c1cccc2nsnc12)c1ccccc1 (centres undefined),9.11% (inactive)
8,O=C(OCC1CC(c2ccccn2)=NO1)c1ccc(Br)cc1 (centres undefined),9.31% (inactive)
9,CCCCNc1nc(CC)c2c(c1C#N)CCCC2,4.98% (inactive)
10,FC(F)(F)c1cnc2c(-c3ccccc3)n[nH]c2c1,0.15% (inactive)
11,O=c1c2cccnc2[nH]c(=S)n1CCCN1CCN(c2ccc(F)cc2)CC1,1.58% (inactive)
12,Cc1cc(SCc2cc(=O)[nH]c3ccccc23)nc2ccccc12,-9.63% (inactive)
13,CCOC(=O)c1c(NC(C)=O)sc2c(O)cccc12,35.6% (inactive)
14,CC1CCN(S(=O)(=O)c2ccc(NC(=O)CSc3ncccc3C(=O)O)cc2)CC1,5.02% (inactive)
15,C=CCNS(=O)(=O)c1nc(C)c(Cl)c(C)c1C#N,0.74% (inactive)
16,CC(=O)N[C@@H](Cc1c[nH]c2ccccc12)C(=O)OCC(=O)Nc1ccc(Cl)c(S(=O)(=O)N(C)C)c1,7.98% (inactive)
17,Cc1ccc(/C=C2\SC(N)=NC2=O)s1,1.87% (inactive)
18,COc1ccc(CCNC(=O)CSc2nc(-c3ccco3)cc(C(F)(F)F)n2)cc1OC,18.9% (inactive)
19,Cc1cccc(N2CCN(c3cccc(C)c3)C2c2cccnc2)c1,5.98% (inactive)
20,CCOc1cc(C(=O)NCCCn2ccnc2)cc(OCC)c1OCC,-4.2% (inactive)
21,CCOC(=O)C(C)Oc1cccc2c(=O)n(CC(=O)Nc3cccc(OC)c3)ccc12 (centres undefined),22.4% (inactive)
22,CCOC(=O)C1CCCN(c2ncnc3c2cnn3-c2ccc(Cl)cc2)C1 (centres undefined),38.5% (inactive)
23,CS(=O)(=O)N1CCc2cc(-c3csc(NC(=O)Cc4cccs4)n3)ccc21,11.6% (inactive)
24,COc1ccc2c(c1OC)C(=O)OC2c1c(O)nc(SC)n(-c2ccccc2)c1=O (centres undefined),4.68% (inactive)
25,Brc1ccc(C2=CC(c3cccs3)n3ncnc3N2)cc1 (centres undefined),13.5% (inactive)

row,Structure (SMILES),inhibition
1,Nc1ccc2c(c1)N1CCN=C1S2,11.1% (inactive)
2,Cn1c(=O)[nH]c(=O)c2c1nc(N1CCCCC1)n2CCCSc1nnnn1-c1ccccc1,10.1% (inactive)
3,Cc1ccc(N2C(=O)C3C4C=CC(CNC(=S)Nc5ccc(F)cc5)(O4)C3C2=O)cc1 (centres undefined),5.92% (inactive)
4,COc1ccc2nc(NC(=O)CSC3=NCCS3)sc2c1,-0.86% (inactive)
5,CC(=O)c1c(C)[nH]c(C(=O)Nc2ccccc2N2CCOCC2)c1C,4.19% (inactive)
6,COc1ccc(C(c2nnnn2Cc2ccccc2)N2CCN(c3nc4ccccc4s3)CC2)cc1 (centres undefined),2.21% (inactive)
7,O=C(CSc1ncnc2nc[nH]c12)Nc1ccccc1C(F)(F)F,30.5% (inactive)
8,CC(OC(=O)CCN1C(=O)c2cccc([N+](=O)[O-])c2C1=O)C(=O)Nc1cc(Cl)cc(Cl)c1 (centres undefined),36.2% (inactive)
9,CN(C)CCNC(=O)/C(=C/c1ccc(-c2ccc(Cl)cc2)o1)NC(=O)c1ccccc1,0.09% (inactive)
10,COc1cc(NC2c3ncccc3C(=O)N2Cc2ccco2)cc(OC)c1 (centres undefined),7.75% (inactive)
11,Cc1cc(-n2nc(C)cc2C)nc(NS(=O)(=O)c2ccccc2)n1,14.8% (inactive)
12,CCOc1cc(C(=O)NCc2nnc(SCC(=O)OC)n2C)cc(OCC)c1OCC,-6.58% (inactive)
13,COc1ccc(N/C=C/C(=O)c2ccc(C)cc2)c([N+](=O)[O-])c1,17.3% (inactive)
14,COC(=O)C(NC(=O)c1ccccc1)c1ccccc1 (centres undefined),5.65% (inactive)
15,O=C(/C=C/c1ccccc1)Nc1ncn[nH]1,5.62% (inactive)
16,COc1ccc(S(=O)(=O)Nc2cccc(S(=O)(=O)N3CCCCCC3)c2)cc1,31% (inactive)
17,O=C(COc1ccc(/C=N/NC(=O)C(=O)N2CCCCCC2)cc1)Nc1ccccc1Cl,8.09% (inactive)
18,Cc1ccc(/C=C/C(=O)O)cc1S(=O)(=O)NCCO,1.34% (inactive)
19,COc1cc(-c2noc(CCC(=O)Nc3cccnc3)n2)cc(OC)c1OC,33.6% (inactive)
20,CN1CCN(S(=O)(=O)c2ccc(NC(=O)C3CCCO3)cc2)CC1 (centres undefined),13.2% (inactive)
21,CN1CCCN(S(=O)(=O)c2ccc(Cl)c(Cl)c2)CC1,0.45% (inactive)
22,O=C(CCn1c2c(c3ccccc31)CCCC2)NNC(=O)c1ccccc1[N+](=O)[O-],2% (inactive)
23,COc1ccccc1NC(=O)c1ccc(S(=O)(=O)N2CCCC2)cc1,3.22% (inactive)
24,Cc1ccc(C)n1NC(=O)c1cccs1,7.45% (inactive)
25,C=CCn1c(=O)c2ccccc2n2c(SCC(=O)N3CCCc4ccccc43)nnc12,6.51% (inactive)

row,Structure (SMILES),inhibition
1,CCOc1ccc(-n2nc(C(=O)N3CCN(CC)CC3)c3ccccc3c2=O)cc1,18.4% (inactive)
2,COC(=O)c1cc2sc(Cl)cc2n1CC(=O)Nc1cccc(SC)c1,2.57% (inactive)
3,COC(=O)c1cc(Br)c(=O)n(Cc2ccncc2)c1,6.86% (inactive)
4,Cc1ccccc1Cn1ccc(NC(=O)c2cnn3c2NC(c2ccccc2)CC3C(F)(F)F)n1 (centres undefined),2.9% (inactive)
5,CCc1n[nH]c2c1C(=O)CC(C)(C)C2,18% (inactive)
6,CCCNC(=O)C1CCN(S(=O)(=O)c2c(C)noc2/C=C\c2ccc(OC)cc2)CC1,6.76% (inactive)
7,Cc1ccc(N)cc1S(=O)(=O)N(C)C,7.3% (inactive)
8,COc1ccc(Br)cc1CN(C)CC(=O)Nc1c(Cl)cccc1Cl,0.05% (inactive)
9,COc1ccc(C2(CNC(=O)c3cc([N+](=O)[O-])cc([N+](=O)[O-])c3)CCCC2)cc1OC,4.01% (inactive)
10,O=C(/C=C/c1ccccc1)N1CCC(Cc2ccccc2)CC1,9.46% (inactive)
11,O=C(NCCN1C(=O)CSC1=O)c1ccccc1,1.16% (inactive)
12,O=C(Nc1ccccc1)N(CCc1ccncc1)C1CCCCC1,5.75% (inactive)
13,COc1ccc(-c2noc(CCC(N)=O)n2)cc1OC,16.5% (inactive)
14,N/C(=N\c1nc(CSc2ccc(Cl)cc2)cc(=O)[nH]1)Nc1cccc2ccccc12,6.58% (inactive)
15,O=C(Cn1ncc2c(=O)oc3ccccc3c21)N1CCc2ccccc2C1,9.96% (inactive)
16,CCn1cc(C(=O)O)c(=O)c2cc(F)c(N3CCN(C(=S)NC(=O)c4ccc(Br)cc4)CC3)cc21,7.45% (inactive)
17,COc1ccc(C(=O)NCC(C)C)c(OC)c1,24.1% (inactive)
18,COc1ccc(S(=O)(=O)NCc2csc(-c3cccnc3)n2)cc1,4.07% (inactive)
19,CC(=O)c1ccc(NC(=S)N2CC(C)CC(C)C2)cc1 (centres undefined),-4.33% (inactive)
20,CCOC(=O)c1c(NC(=O)CSc2nnc(-c3ccccc3)n2CC)sc(C(C)=O)c1C,8.92% (inactive)
21,O=C(CN1CCN(Cc2ccccc2Cl)C1=O)NCc1ccco1,8.68% (inactive)
22,N#Cc1cccc(-n2c(-c3ccccc3)nnc2-c2ccccc2)c1C#N,4.7% (inactive)
23,CC(OC(=O)c1ccco1)C(=O)NC1CCCCC1 (centres undefined),18.2% (inactive)
24,CN(C)c1ccc(NC(=S)NC(=O)/C=C/c2ccc(Cl)cc2)cc1,2.61% (inactive)
25,Cc1cccc(OCCCC(=O)O)c1,4.01% (inactive)

row,Structure (SMILES),inhibition
1,C=CCN1C(c2cccc(C(F)(F)F)c2)=CS/C1=C(/C#N)c1nnc(N2CCOCC2)n1-c1ccccc1,31.5% (inactive)
2,CCOC(=O)N1CCN(C(=S)NC(=O)c2cncc(Br)c2)CC1,19.8% (inactive)
3,CCOC(=O)N1CCC(N2CCN(S(=O)(=O)c3ccc(NC(C)=O)cc3)CC2)CC1,5.13% (inactive)
4,COc1ccc(Cl)cc1NC(=S)NCc1ccco1,2.52% (inactive)
5,Cc1ccc(CNC(=O)C2CCN(S(=O)(=O)c3c(C)noc3/C=C/c3ccco3)CC2)cc1,4.12% (inactive)
6,CCCn1c(SCC(=O)N2c3ccccc3Sc3ccccc32)nc2c1c(=O)n(C)c(=O)n2C,-8.34% (inactive)
7,C=C(C)CC(NCCc1ccccc1)c1ccco1 (centres undefined),1.31% (inactive)
8,O=C(CCc1ccccc1)NCCC1=CCCCC1,6.52% (inactive)
9,CCCC(CCC)C(=O)NNc1cc(=O)c2c(=O)n(C)c(=O)n(C)c2[nH]1,5.15% (inactive)
10,CC(C)(C)OC(=O)NCC(=O)N1CCC(C(=O)O)CC1,-3.45% (inactive)
11,O=C(Cc1cccs1)NNC(=S)NC(=O)c1ccc(F)c(F)c1,6.92% (inactive)
12,Fc1cccc(F)c1CSc1nc2ccccc2[nH]1,3.56% (inactive)
13,CCN(CC)Cc1cc(C(C)=O)ccc1O,3.73% (inactive)
14,COc1ccc(CCNC(=O)COc2ncnc3cc([N+](=O)[O-])ccc23)cc1,15.8% (inactive)
15,Cc1nc2ccc(NC(=O)c3cc(S(=O)(=O)N4CCOCC4)ccc3C)cc2s1,16% (inactive)
16,Cc1cc(=O)n2nc(-c3ccccc3)sc2c1C#N,1.2% (inactive)
17,COc1ccc(-c2ccc(C(=S)N3CCN(C(C)=O)CC3)o2)cc1,3.01% (inactive)
18,Nc1ccc(Br)cc1-c1nc2ccccc2[nH]c1=O,-8.67% (inactive)
19,O=C(Oc1nsnc1N1CCOCC1)N1CCOCC1,2.57% (inactive)
20,COc1ccc(NC(=O)N(CCCN2CCOCC2)Cc2cccnc2)c(OC)c1,3.7% (inactive)
21,COc1ccc(Br)cc1CN(C)CC(=O)Nc1cc(Cl)ccc1Cl,-1.79% (inactive)
22,Cc1cc(SCC(=O)c2cccs2)nc2ccccc12,8.62% (inactive)
23,Cc1ccn2cc(CCNS(=O)(=O)c3ccc(F)c(C(F)(F)F)c3)nc2c1,0.82% (inactive)
24,Cc1ccc(C2(O)CN(c3ccccc3C)C3=[N+]2CCS3)cc1 (centres undefined),2.57% (inactive)
